Source: US20250163062A1, “WNT PATHWAY INHIBITOR COMPOUNDS” (ADLAI NORTYE BIOPHARMA CO., LTD., priority 2022, published 2025)
Read-outs that look alike come from different tables or passages of the source.

How the values were obtained:
Type in all cases: cell-based
Colo205 = test: Proliferation inhibition test, Wnt mutant cell line Colo205; conditions: Colo205, 96 h culture with compound, read-out: Antiproliferation IC50 Colo205
Description: (§1) The cell lines used in the experiment are Colo205, H929, HepG2, and DU4475, which have sustained activation of the Wnt pathway and whose proliferation is Wnt pathway-dependent. On the other hand, RKO cell line, in which normally the Wnt pathway is not activated and whose proliferation is not Wnt pathway-dependent, was used as a control cell line. This was done to determine whether the inhibitory effect of the compound of the present disclosure on Wnt-dependent proliferation is due to other nonspecific toxicity.
(§2) Colo205, H929, DU4475, HepG2 and RKO cell lines cultured in their respective culture media were treated in the logarithmic growth phase, and the cells were collected and prepared into a uniform cell suspension of known concentration, and then added to a 96-well cell culture plate so that each well contained 1000-4000 cells. Place in a 5% CO2 cell culture incubator and culture at 37° C. for 20-24 h. On the second day, add the completely dissolved, 3-fold gradient dilution compound to each cell culture well to make the final maximum concentration in the cell culture well 10 uM, and continue to culture for 96 h. This test uses Promega's cell activity detection test for detection. The more the cells proliferate, the stronger the final signal intensity. The detection instrument is SpectraMax, full wavelength mode. The wells with only DMSO added were used as positive control wells, and the wells without cells inoculated were used as negative control wells.

H929 = test: Proliferation inhibition test, Wnt mutant cell line H929; conditions: Homo sapiens, NCI-H929, 96 h, H929, 96 h culture with compound; read-out: Antiproliferation IC50 H929
Description: as §1, §2

DU4475 = test: Proliferation inhibition test, Wnt mutant cell line DU4475; conditions: Homo sapiens, DU-4475, 96 h, DU4475, 96 h culture with compound; read-out: Antiproliferation IC50 DU4475
Description: as §1, §2

[1] = tested on: Colo205-LUC-TCF/LEF reporter gene; test: Colo205-LUC-TCF/LEF M1 reporter cell line luciferase inhibition; conditions: 4 hours incubation, firefly luciferase signal
Experimental: Colo205 cell line (Cell Bank of Chinese Academy of Sciences, Cat #TCHul02) was purchased from the Cell Bank of Chinese Academy of Sciences. After expansion and subculture, during the exponential growth phase, luciferase reporter plasmid (Promega) driven by TCF/LEF transcription factor was transfected by lipo3000 liposome transfection. The plasmid carries a resistance gene for resistance screening. Transfection was carried out in 10 cm culture dishes using conventional complete medium without resistance. After 2 days, the medium with resistance was replaced, and the culture was continued. After that, the medium with resistance was replaced every 2 days, and the suspended cells were discarded. The original medium was centrifuged to remove cells and debris and retained as an adaptive medium. When the cells covered the culture dish, the cells were digested, counted, and passaged in a 96-well plate, so that the average number of cells contained in each well was 1.5/well, and the adaptive medium was used for passage. The rest of the cells were frozen. After passage, culture for 4 hours to allow the cells to adhere to the wall, and then observe the number of cells in each well under a microscope. Wells with only 1 cell per well were labeled as monoclonal wells. Afterwards, normal culture was performed, and the culture medium was replaced every 2 days, and observed. There are wells where the monoclonal cells continue to grow in the early stage, and they are labeled twice, and can be replaced with normal medium with resistance. When a monoclonal well was overgrown with a 96-well plate, it is digested and passaged to a 24-well culture plate. After the 24-well plate is overgrown, it is passaged to a 96-well plate and a 6-well plate. The cells in a 96-well plate are at least 6 wells, of which 3 wells were added with known Wnt inhibitors, and the other 3 wells were not treated. After 24 hours, the cells in the 96-well plate were added with a fluorescence detection reagent to detect the fluorescence intensity. Cell lines with fluorescent expression when not treated and decreased fluorescent light after inhibition were selected and further cultured. The Colo205-LUC-TCF/LEF-M1 cell line is one of the cell lines screened above. Its growth curve, cell shape, and cell growth state are similar to those of the original Colo205 cells, and the ratio of the fluorescent signals of the inhibitor-treated and untreated cells is the largest among all cell lines, and the ratio can reach 4-5 times when inhibited at 4 hours, which was completely suitable for the screening of Wnt inhibitors in the later stage.
The Colo205-LUC-TCF/LEF M1 cell line is a reporter tool cell stably transfected with the pGL4.49-LUC2-TCF/LEF vector. The β-catenin Wnt pathway is continuously activated. After adding the inhibitor, the Wnt pathway is inhibited. The expression of firefly luciferase regulated by the TCF/LEF cis-element decreased, and after adding the detection substrate, the detected light signal decreased accordingly, so as to detect the inhibitory effect of the compound.
To a 96-well cell culture plate, add 100 uL of the compound with a maximum concentration of 20 uM to each well, and make a 3-fold serial dilution of the compound concentration. Then 10,000 colo205 cells stably transfected with the reporter gene and 100 uL medium were inoculated into each well, and corresponding positive and negative control wells were made at the same time. Put the cells in a 5% CO2 incubator and incubate at 37° C. for 4 hours. After 4 hours, remove the culture medium, add 100 μL of reagent (Promega) containing the corresponding firefly luciferase substrate to each well, and measure the activity of luciferase reporter gene. Luminescence intensity was read with SpectraMax in full wavelength mode. […]

HepG2 = test: Proliferation inhibition test, Wnt mutant cell line HepG2; conditions: HepG2, 96 h culture with compound, read-out: Antiproliferation IC50 HepG2
Description: as §1, §2

RKO = test: Proliferation inhibition test, non-Wnt mutant control cell line RKO; conditions: Homo sapiens; RKO (Wnt pathway not activated, control), 96 h culture, maximum concentration 10 uM; read-out: Antiproliferation IC50 RKO
Description: as §1, §2

| IC50 (Colo205; Homo sapiens, COLO 205, 96 h) [nM] | IC50 (H929) [nM] | IC50 ([1]; 4 h) [nM] | IC50 (HepG2; Homo sapiens, HepG2, 96 h) [nM] | IC50 (Colo205) [nM] | IC50 [1] [nM] | IC50 (HepG2) [nM] | SMILES | IC50 (DU4475) [nM] | IC50 (RKO) [nM] |
| --- | --- | --- | --- | --- | --- | --- | --- | --- | --- |
| 7.81 | 40.3 | 15.5 | 1.45 |  |  |  | [2H]C([2H])([2H])N1c2nc(NCc3ccc(Oc4ccc(C(F)(F)F)nc4Cl)nc3)nc3c2N(CCC3)C(=O)[C@@H]1CO [Compound 1, (S)-2-(((6-((2-chloro-6-(trifluoromethyl)pyridin-3-yl)oxy)pyridin-3-yl)methyl)amino)-5-(hydroxymethyl)-4-(methyl-d3)-4,5,9,10-tetrahydro-6H,8H-pyrido[3,2,1-de]pteridin-6-one] | 3.17 | > 10000 |
| 8.67 | 47.7 | 22.5 | 1.68 |  |  |  | CN1c2nc(NCc3ccc(Oc4ccc(C(F)(F)F)nc4Cl)nc3)nc3c2N(CCC3)C(=O)[C@@H]1CO [Compound 2, (S)-2-(((6-((2-chloro-6-(trifluoromethyl)pyridin-3-yl)oxy)pyridin-3-yl)methyl)amino)-5-(hydroxymethyl)-4-methyl-4,5,9,10-tetrahydro-6H,8H-pyrido[3,2,1-de]pteridin-6-one] | 5.05 | > 10000 |
| 4.48 | 20 | 15.6 | 2.17 |  |  |  | [2H]C([2H])([2H])N1c2nc(NCc3ccc(Oc4ccc(C(F)(F)F)nc4Cl)nc3)nc3c2N(CCC3)C(=O)[C@]1(C)CO [Compound 3, (S)-2-(((6-((2-chloro-6-(trifluoromethyl)pyridin-3-yl)oxy)pyridin-3-yl)methyl)amino)-5-(hydroxymethyl)-5-methyl-4-(methyl-d3)-4,5,9,10-tetrahydro-6H,8H-pyrido[3,2,1-de]pteridin-6-one] | 3.06 | > 10000 |
| 42.6 | 278 | 66.3 | 89.7 |  |  |  | [2H]C([2H])([2H])N1c2nc(NCc3ccc(Oc4cnc(C(F)(F)F)nc4C)nc3)nc3c2N(CCC3)C(=O)[C@@H]1CO [Compound 4, (S)-5-(Hydroxymethyl)-4-(methyl-d3)-2-(((6-((4-methyl-2-(trifluoromethyl)pyrimidin-5-yl)oxy)pyridin-3-yl)methyl)amino)-4,5,9,10-tetrahydro-6H,8H-pyrido[3,2,1-de]pteridin-6-one] | 25.8 | > 10000 |
| 20.6 | 160 | 50.9 | 33.5 |  |  |  | [2H]C([2H])([2H])N1c2nc(NCc3ccc(Oc4cnc(C(F)(F)F)nc4C)nc3)nc3c2N(CCC3)C(=O)[C@]1(C)CO [Compound 5, (S)-5-(Hydroxymethyl)-5-methyl-4-(methyl-d3)-2-(((6-((4-methyl-2-(trifluoromethyl)pyrimidin-5-yl)oxy)pyridin-3-yl)methyl)amino)-4,5,9,10-tetrahydro-6H,8H-pyrido[3,2,1-de]pteridin-6-one] | 14.4 | > 10000 |
|  | 303 |  |  | 9.05 | 65.6 | 109 | Cc1nc(C(F)(F)F)ncc1Oc1ccc(CNc2nc3c4c(n2)N(C)[C@@](C)([C@H](C)O)C(=O)N4CCC3)cn1 [Compound 6, (S)-5-((S)-1-hydroxyethyl)-4,5-dimethyl-2-(((6-((4-methyl-2-(trifluoromethyl)pyrimidin-5-yl)oxy)pyridin-3-yl)methyl)amino)-4,5,9,10-tetrahydro-6H,8H-pyrido[3,2,1-de]pteridin-6-one] | 47.4 | > 10000 |
| 5.54 | 52.2 | 10.7 | 15.6 |  |  |  | [2H]C([2H])([2H])N1c2nc(NCc3ccc(Oc4cnc(C(F)(F)F)nc4CC)nc3)nc3c2N(CCC3)C(=O)[C@]1(C)CO [Compound 7, (S)-2-(((6-((4-ethyl-2-(trifluoromethyl)pyrimidin-5-yl)oxy)pyridin-3-yl)methyl)amino)-5-(hydroxymethyl)-5-methyl-4-(methyl-d3)-4,5,9,10-tetrahydro-6H,8H-pyrido[3,2,1-de]pteridin-6-one] | 3.59 | > 10000 |
| 24.2 | 86.9 | 32 | 35.1 |  |  |  | [2H]C([2H])([2H])N1c2nc(NCc3ccc(Oc4cnc(C(F)(F)F)nc4CC)nc3)nc3c2N(CCC3)C(=O)[C@@H]1CO [Compound 8, (S)-2-(((6-((4-ethyl-2-(trifluoromethyl)pyrimidin-5-yl)oxy)pyridin-3-yl)methyl)amino)-5-(hydroxymethyl)-4-(methyl-d3)-4,5,9,10-tetrahydro-6H,8H-pyrido[3,2,1-de]pteridin-6-one] | 9.6 | > 10000 |
| 8.43 | 36.4 | 13.8 | 11.3 |  |  |  | [2H]C([2H])([2H])N1c2nc(NCc3ccc(Oc4cnc(C(F)(F)F)nc4C4CC4)nc3)nc3c2N(CCC3)C(=O)[C@@H]1CO [Compound 9, (S)-2-(((6-((4-cyclopropyl-2-(trifluoromethyl)pyrimidin-5-yl)oxy)pyridin-3-yl)methyl)amino)-5-(hydroxymethyl)-4-(methyl-d3)-4,5,9,10-tetrahydro-6H,8H-pyrido[3,2,1-de]pteridin-6-one] | 0.46 | > 10000 |
| 70.3 |  | 35.2 | 79 |  |  |  | CCc1nc(C(F)(F)F)ncc1Oc1ccc(CNc2nc3c4c(n2)N(C)[C@@](C)([C@H](C)O)C(=O)N4CCC3)cn1 [Compound 14, (S)-2-(((6-((4-ethyl-2-(trifluoromethyl)pyrimidin-5-yl)oxy)pyridin-3-yl)methyl)amino)-5-((S)-1-hydroxyethyl)-4,5-dimethyl-4,5,9,10-tetrahydro-6H,8H-pyrido[3,2,1-de]pteridin-6-one] |  | > 10000 |
| 1.35 |  | < 0.1 | 1.3 |  |  |  | CN(C)c1nc(C(F)(F)F)ccc1Oc1ccc(CNc2nc3c4c(n2)N(C)[C@@](C)(CO)C(=O)N4CCC3)cn1 [Compound 15, (S)-2-(((6-((2-(dimethylamino)-6-(trifluoromethyl)pyridin-3-yl)oxy)pyridin-3-yl)methyl)amino)-5-(hydroxymethyl)-4,5-dimethyl-4,5,9,10-tetrahydro-6H,8H-pyrido[3,2,1-de]pteridin-6-one] |  | > 10000 |
